# Measured values as given in patent US7189708B2, “Topical composition for skin” (Kao Corporation, priority 1999, dated 2007).
# Peptide text beside a SMILES is read from it.
# What was measured:
# SD male rats = assay: Maintenance of skin elasticity in rat (UV-B exposed hind limb pads; cutometer and SEM linearity of elastic fibers); assay type: in vivo; design: Ue value / Uf value: unit not given here; settings: for Ue value / Uf value: 10 μL on pad after UV-B, three times a week, six weeks, cutometer 500 hPa; for Ue value: solvent only 0.02125, no treatment 0.03294; for Uf value: solvent only 0.03333, no treatment 0.04833; for Linearity: linearity of elastic fibers A/(B×C) from SEM micrographs of rat pad, linear = 1, solvent only 0.5133, no treatment 0.7345
# Protocol: Maintenance of Skin Elasticity in Rat
# Three-week-old SD male rats were classified into three groups (five rats per group): a group of rats to which an 80% ethanol solution containing a test compound was applied to pads of hind limbs; a group of rats to which a solvent (80% ethanol) was applied to the pads; and a group of non-treated rats. Each pad was exposed to UV-B rays (less than 1 MED), and then the test compound-containing solution or the solvent was applied to the pad in an amount of 10 μL. The above procedure was carried out three times a week (every other day of the week days) for six weeks.
# Skin elasticity was determined using a cutometer (model: SES575, product of Courage Kazaka) as follows. The skin of the pad was subjected to suction at 500 hPa for three seconds, and then released for three seconds. The displacement over six seconds was measured, to thereby obtain Ue and Uf values. The measurement was repeated five times for each pad.
# The linearity of elastic fibers was analyzed according to the method of Imokawa et al. (J. Invest. Dermatol., 105, 254–258(1995)) through image analysis of an SEM micrograph. Specifically, samples for scanning electron microscopy (SEM) were prepared by fixing the pad of a rat with Mercox (product of Dainippon Ink and Chemicals, Inc.) under reflux, followed by digestion with formic acid. From SEM micrographs (×1000) of each of the samples, ten typical micrographs were selected and enlarged copies were made. Each of the enlarged micrographs was divided into 16 uniform regions. From each of the regions, any one of the elastic fibers was selected and traced on a transparent film with a line having a fixed width (width: 8 pixels). When the area surrounded by the line tracing the elastic fiber is called A, and the longitudinal length and lateral length of the minimum rectangle surrounding the trace are called B and C, respectively, the linearity of the elastic fiber is represented by A/(B×C). For example, when the trace of the elastic fiber is linear, the linearity becomes 1.
# C3H mice = assay: Hair growth suppression in mouse (shaved back, topical application); assay type: in vivo; settings: 100 μL twice a day on shaved back, area of hair regrowth after three weeks relative to control; for Hair-growth suppression ratio: 1% in 80% ethanol; for response vs control in vivo at 0.1 %: Mus musculus, topical, 504 h, 0.1% in 80% ethanol, read-out: Hair-growth suppression ratio
# Protocol: Hair Growth Suppression in Mouse
# The hair on a portion of the backs (size: 2 cm×4 cm) of groups of six-week-old C3H mice, each group consisting of five mice, was carefully shaved so as not to injure the skin using an electric clipper and electric shaver. To the thus-shaved portion, a sample was applied in an amount of 100 μL twice a day for four weeks. Test compounds were dissolved in a solvent (80% ethanol) to attain the concentrations shown in Table 3, to thereby prepare samples. In the control group, only the solvent was applied to the shaved portion. After three weeks, in order to observe hair regrowth, the shaved portion was photographed at a certain magnification, and the ratio of the area of hair regrowth (i.e., the ratio of the area of hair regrowth to that of the shaved area) was compared with that of the control group using an image analyzer. The hair growth suppression ratio (%) was represented by a relative value when the ratio of the area of the hair regrowth in the control group was taken as 100.
# hairless mouse (HR/ICR) = assay: Suppression of wrinkle formation in hairless mouse (UV-B exposure, topical application); settings: 100 μL on back after daily UV-B, 20 weeks, visual rating 0 (no wrinkle) to 4 (deep wrinkles), control 3.06 ± 0.13
# Protocol: Immediately after the exposure, an 80% ethanol solution (100 μL) containing a 0.1% test compound was applied to the back. The above procedure was carried out daily for 20 weeks. […] In the control group, only 80% ethanol was applied to the back of each mouse during the test. After the test, wrinkle formation was visually observed, and the degree of wrinkle formation was evaluated against the following ratings (wrinkle index).
# 1: A few shallow wrinkles were formed.
# 2: A slight amount of wrinkles was formed.
# 3: Some wrinkles were formed.
# 4: Deep wrinkles were formed.
# [1] = 1% test compound in 80% ethanol
# [2] = 0.1% test compound in 80% ethanol
Compound,Ue value (SD male rats; 1% in 80% ethanol),Uf value (SD male rats; 1% in 80% ethanol),Linearity (SD male rats; 1%),Hair-growth suppression ratio (C3H mice),Wrinkle Index (hairless mouse (HR/ICR); [1]),Ue value (SD male rats; 0.1% in 80% ethanol),Uf value (SD male rats; 0.1% in 80% ethanol),Linearity (SD male rats; 0.1%),response vs control in vivo at 0.1 % (C3H mice),Wrinkle Index (hairless mouse (HR/ICR); [2])
"N[C@@H](Cc1ccccc1)C(=O)NCCC(=O)O [Compound 12, Phe-β-Ala]",0.03326 ± 0.01267,0.04572 ± 0.01862,0.7197 ± 0.0321,90.4%,1.98 ± 0.20,,,,,
CCCN[C@@H](Cc1ccccc1)C(=O)NCCC(=O)O [Compound 8],,,,,,0.02708 ± 0.00119,0.0427 ± 0.00657,0.6976 ± 0.0422,77.8%,2.03 ± 0.09
CC(C)C[C@H](NCC(=O)O)C(=O)NCCC(=O)O [Compound 9],,,,,,0.02793 ± 0.00697,0.04295 ± 0.00836,0.6892 ± 0.0157,77.1%,2.11 ± 0.11
"O=C(O)CCNC(=O)[C@H](Cc1ccccc1)NCC(=O)O [Compound 1, N-(carboxymethyl)phenylalanyl-β-alanine]",,,,,,0.03153 ± 0.00523,0.04711 ± 0.00213,0.7221 ± 0.0299,82.4%,1.25 ± 0.11
"N[C@@H](Cc1ccccc1)C(=O)N[C@@H](Cc1ccccc1)C(=O)O [Compound 13, Phe-Phe] (H-Phe-Phe-OH)",,,,78.5%,2.64 ± 0.16,,,,,
O=C(O)CN[C@@H](Cc1ccccc1)C(=O)N[C@@H](CC(=O)O)C(=O)O [Compound 5],,,,,,0.02694 ± 0.00157,0.04285 ± 0.00271,0.6652 ± 0.0239,71%,2.21 ± 0.14
CC(=O)N[C@@H](Cc1ccccc1)C(=O)NCCC(=O)O [Compound 6],,,,,,0.02433 ± 0.00921,0.03913 ± 0.00924,0.6078 ± 0.0195,58.3%,2.57 ± 0.20
CC(C)C[C@H](NC(=O)[C@H](Cc1ccccc1)NCC(=O)O)C(=O)O [Compound 3],,,,,,0.02985 ± 0.01021,0.04323 ± 0.01722,0.7013 ± 0.06551,72.3%,1.82 ± 0.09
O=C(O)CCCNC(=O)[C@H](Cc1ccccc1)NCC(=O)O [Compound 2],,,,,,,,,73.3%,2.01 ± 0.14
"N[C@@H](Cc1ccccc1)C(=O)NCC(=O)O [Compound 11, Phe-Gly] (H-Phe-Gly-OH)",,,,32.9%,2.82 ± 0.18,,,,,
CN(C)[C@@H](Cc1ccccc1)C(=O)NCCC(=O)O [Compound 7],,,,,,0.02623 ± 0.00874,0.0412 ± 0.00258,0.6423 ± 0.0433,69.6%,2.34 ± 0.10
"N[C@@H](Cc1ccccc1)C(=O)N[C@@H](CC(=O)O)C(=O)O [Compound 16, Phe-Asp] (H-Phe-Asp-OH)",,,,75.2%,2.50 ± 0.15,,,,,
"CC(C)C[C@H](NC(=O)[C@@H](N)Cc1ccccc1)C(=O)O [Compound 14, Phe-Leu] (H-Phe-Leu-OH)",,,,70.9%,2.82 ± 0.22,,,,,
"NC(Cc1ccccc1)C(=O)NCCS(=O)(=O)O (stereo not drawn) [Compound 17, Phe-Tau]",0.02894 ± 0.0114,0.04369 ± 0.00872,0.6913 ± 0.0341,79.5%,1.99 ± 0.12,,,,,
C[C@H](NC(=O)[C@H](Cc1ccccc1)NCC(=O)O)C(=O)O [Compound 4],,,,,,0.03009 ± 0.00274,0.04533 ± 0.00971,0.7153 ± 0.0329,80.5%,1.75 ± 0.12
